In patent publication US20220387407A1 (priority 2021, published 2022):
Marks after values point to notes of the source that are not given here.

Columns and labels:
freely-moving rats [1] = assay: Tissue O2 saturation (SpO2) analysis after morphine in freely-moving rats; conditions: for Cumulative change in sPO2: Post-drug, % change from morphine: 15 min post-morphine value as pre-value
freely-moving rats [2] = assay: Arterial blood gases, pH and A-a gradient after morphine in freely-moving rats
freely-moving rats [3] = assay: Blood pressure and heart rate measurement after morphine in freely-moving rats; conditions: for DBP, mmHg: Post-drug, % change from Pre (cumulative) / HR/MAP, mmHg/beats/min: Post-drug, % change from Pre (cumulative) / Heart rate (HR), beats/min: Post-drug, % change from Pre (cumulative) / MAP, mmHg: Post-drug, % change from Pre (cumulative) / SBP, MmHg: Post-drug % change from Pre (cumulative): 15-30 min post-morphine; for DBP, mmHg: Post-drug, % change from morphine (cumulative) / HR/MAP, mmHg/beats/min: Post-drug, % change from morphine (cumulative) / Heart rate (HR), beats/min: Post-drug % change from morphine (cumulative) / MAP, mmHg: Post-drug, % change from morphine (cumulative) / SBP, MmHg: Post-drug, % change from morphine (cumulative): final 15 min morphine value as pre-value
conscious rats = system: conscious rats; design: species or system Sprague-Dawley rats; conditions: rat, in vivo
[4] = system: isoflurane-anesthetized rats; conditions: rat, in vivo
[5] = Tempol 60 mg/kg IV 15 min after morphine 10 mg/kg IV
[6] = Tempol 100 mg/kg IV 15 min after morphine 10 mg/kg IV
[7] = Tempol 60 mg/kg IV after morphine 10 mg/kg IV, FIG. 14

CN1CC[C@]23c4c5ccc(O)c4O[C@H]2[C@@H](O)C=C[C@H]3[C@H]1C5 [Morphine, morphine]
SpO2, change elicited by morphine (freely-moving rats [1]; morphine 10 mg/kg IV, FIG. 17): pronounced and long-lasting decrease
pCO2, change elicited by morphine (freely-moving rats [2]; morphine 10 mg/kg IV, FIG. 14): equally pronounced increases
pH, pO2 and sO2, change elicited by morphine (freely-moving rats [2]; morphine 10 mg/kg IV, FIG. 14): pronounced decreases
A-a gradient, change elicited by morphine (freely-moving rats [2]; morphine 10 mg/kg IV, FIG. 15): rise
MAP, change elicited by morphine (freely-moving rats [3]; morphine 10 mg/kg IV, FIG. 18): relatively minor initial decreases
heart rate, change elicited by morphine (freely-moving rats [3]; morphine 10 mg/kg IV, FIG. 18): substantial decreases
ratio of heart rate/MAP (index of baroreceptor heart rate reflex activity), change elicited by morphine (freely-moving rats [3]; morphine 10 mg/kg IV, FIG. 20): somewhat minor reductions

CC1(C)CC(O)CC(C)(C)N1[O] [Tempol, 4-hydroxy-2,2,6,6-tetramethylpiperidine-N-oxyl]
Cumulative change in sPO2: Post-drug, % change from morphine (freely-moving rats [1]; [5]): +5.0 ± 0.6*^,† %
SpO2, effect of Tempol after morphine (freely-moving rats [1]; Tempol 60 mg/kg IV 15 min after morphine 10 mg/kg IV, FIG. 17): minor short-lived rise
Cumulative change in sPO2: Post-drug, % change from morphine (freely-moving rats [1]; [6]): +12.4 ± 2.0*^,† %
negative effects of morphine on tissue oxygenation (SpO2), effect of Tempol (freely-moving rats [1]; Tempol 100 mg/kg IV 15 min after morphine 10 mg/kg IV, FIG. 17): prompt and sustained reversal
effects of morphine on pH and sO2, effect of Tempol (freely-moving rats [2]; [7]): not reaching significance
negative effects of morphine on pCO2 and pO2, effect of Tempol (freely-moving rats [2]; [7]): reversed the negative effects
morphine-induced rise in A-a gradient, effect of Tempol (freely-moving rats [2]; Tempol 60 mg/kg IV after morphine 10 mg/kg IV, FIG. 15 top panel): not affected
A-a gradient, effect of Tempol (freely-moving rats [2]; Tempol 100 mg/kg IV after morphine 10 mg/kg IV, 5 min post-administration, FIG. 15 bottom panel): pronounced decrease
negative effects of morphine on pH, pCO2, pO2 and sO2, effect of Tempol (freely-moving rats [2]; Tempol 100 mg/kg IV after morphine 10 mg/kg IV, FIG. 16): sustained reversal
tail-flick latencies, effect of Tempol alone (conscious rats): no effects
DBP, mmHg: Post-drug, % change from Pre (cumulative) (freely-moving rats [3]; [5]): −16.7 ± 1.7 %
HR/MAP, mmHg/beats/min: Post-drug, % change from Pre (cumulative) (freely-moving rats [3]; [5]): +19.2 ± 12.7 %
Heart rate (HR), beats/min: Post-drug, % change from Pre (cumulative) (freely-moving rats [3]; [5]): +1.8 ± 7.1 %
MAP, mmHg: Post-drug, % change from Pre (cumulative) (freely-moving rats [3]; [5]): −13.7 ± 1.7 %
SBP, MmHg: Post-drug % change from Pre (cumulative) (freely-moving rats [3]; [5]): −9.5 ± 1.9 %
MAP, change elicited by Tempol after morphine (freely-moving rats [3]; Tempol 60 mg/kg IV 15 min after morphine 10 mg/kg IV, FIG. 18): minor short-lived fall
DBP, mmHg: Post-drug, % change from morphine (cumulative) (freely-moving rats [3]; [5]): −13.9 ± 2.4*^,† %
HR/MAP, mmHg/beats/min: Post-drug, % change from morphine (cumulative) (freely-moving rats [3]; [5]): +53.3 ± 13.7*^,† %
Heart rate (HR), beats/min: Post-drug % change from morphine (cumulative) (freely-moving rats [3]; [5]): +31.2 ± 10.3*^,† %
MAP, mmHg: Post-drug, % change from morphine (cumulative) (freely-moving rats [3]; [5]): −13.2 ± 1.8*^,† %
SBP, MmHg: Post-drug, % change from morphine (cumulative) (freely-moving rats [3]; [5]): −11.3 ± 1.6*^,† %
DBP, mmHg: Post-drug, % change from Pre (cumulative) (freely-moving rats [3]; [6]): −19.6 ± 2.0 %
HR/MAP, mmHg/beats/min: Post-drug, % change from Pre (cumulative) (freely-moving rats [3]; [6]): +18.3 ± 3.9*7%
Heart rate (HR), beats/min: Post-drug, % change from Pre (cumulative) (freely-moving rats [3]; [6]): −6.8 ± 3.0*^,† %
MAP, mmHg: Post-drug, % change from Pre (cumulative) (freely-moving rats [3]; [6]): −19.4 ± 1.5*^,† %
SBP, MmHg: Post-drug % change from Pre (cumulative) (freely-moving rats [3]; [6]): −18.8 ± 1.2*^,† %
MAP, change elicited by Tempol after morphine (freely-moving rats [3]; Tempol 100 mg/kg IV 15 min after morphine 10 mg/kg IV, FIG. 18): prompt and sustained decrease
DBP, mmHg: Post-drug, % change from morphine (cumulative) (freely-moving rats [3]; [6]): −3.2 ± 4.1 %
HR/MAP, mmHg/beats/min: Post-drug, % change from morphine (cumulative) (freely-moving rats [3]; [6]): +43.0 ± 7.1*^,† %
Heart rate (HR), beats/min: Post-drug % change from morphine (cumulative) (freely-moving rats [3]; [6]): +37.0 ± 9.9*^,† %
MAP, mmHg: Post-drug, % change from morphine (cumulative) (freely-moving rats [3]; [6]): −5.6 ± 3.2 %
SBP, MmHg: Post-drug, % change from morphine (cumulative) (freely-moving rats [3]; [6]): −9.1 ± 2.3*^,† %
morphine-induced bradycardia, effect of Tempol (freely-moving rats [3]; Tempol 60 and 100 mg/kg IV 15 min after morphine 10 mg/kg IV, FIG. 18): prompt and sustained reversal
heart rate/MAP ratios, change elicited by Tempol after morphine (freely-moving rats [3]; Tempol 60 or 100 mg/kg IV, especially the 100 mg/kg dose, after morphine 10 mg/kg IV, FIG. 20): rapid and sustained increase
frequency of breathing (Freq), change elicited by Tempol [4]: minimal changes
heart rate (HR), change elicited by Tempol [4]: somewhat minor but sustained decreases
mean (MAP), diastolic (DBP) and systolic (SBP) arterial blood pressures, change elicited by Tempol [4]: pronounced dose-dependent decreases
tidal volume (TV) and minute ventilation (MV), change elicited by Tempol [4]: somewhat dose-dependent (relatively minor but sustained) increases
total responses (all time points summed) in MAP, DBP, SBP and HR elicited by Tempol [4]: significant decreases
total responses (all time points summed) in TV and MV elicited by Tempol [4]: significant increases
